Earlier results as cited in patent US6140347A, “Azetidine, pyrrolidine and piperidine derivatives as 5-HT receptor agonists” (Merck Sharp & Dohme Ltd., priority 1996, dated 2000).

What was measured:
[1] = therapeutic doses
[2] = tested on: human 5-HT1Dα and 5-HT1Dβ receptor subtypes; settings: cf. WO-A-91/17174, Table 1

CNS(=O)(=O)Cc1ccc2[nH]cc(CCN(C)C)c2c1 [sumatriptan]
adverse cardiovascular events in humans (in words) [1]: certain adverse cardiovascular events | discrimination between the human 5-HT1Dα and 5-HT1Dβ receptor subtypes (in words) [2]: barely discriminates
